# Legend:
# DBA CD34-5F cells = assay: NSG mice transplanted with DBA CD34-5F progenitors, erythroid proportion of human graft; assay type: in vivo
# Protocol: (§1) (FIG. 10A) SMER28 rescues RBC output in rps29^+/− zebrafish embryos. The level of hemoglobin in the yolk sac was visualized 40hpf with benzidine staining. Images are representative of the proportion of embryos indicated (of total counted). (FIG. 10B) Quantitation of SMER28 rescue for a range of 0.1-1 μM, with embryos grouped by high, medium, and low levels of hemoglobin staining. (FIG. 10C) Peripheral blood (PB) RBC counts and hematocrit in mice with irradiation-induced anemia. Mice were treated with the PEG400-based vehicle containing DMSO (VEH) (n=11), 1 mg/kg Dex (sodium-phosphate) (n=13), or 10 mg/kg SMER28 (n=9) for 3 weeks, bled, and assessed. Data are combined from 3 independent experiments. (FIG. 10D) Erythroid cells as proportion of the human graft in mice transplanted with DBA CD34-5F progenitors, and treated as in (FIG. 1c). (FIG. 10E) Levels of human engraftment in NSG mouse bone marrow (BM) transplanted with CB CD34^+ cells. Mice were treated with DMSO plus vehicle (VEH) (n=10), 1 mg/kg Dex (sodium-phosphate) (n=6), or 2 mg/kg SMER28 (n=11) for 4 weeks. (FIG. 10F) The proportion of erythroid, myeloid, and lymphoid (B cells) lineages within the human graft in vehicle- and SMER28-treated mice transplanted with CB CD34^+ cells. Only the effect on the erythroid lineage was significant. Data in FIGS. 10E-10G are pooled from 2 independent experiments. […]
# [1] = tested on: mice with irradiation-induced anemia; assay: Irradiation-induced anemia in mice, peripheral blood RBC counts and hematocrit; assay type: in vivo, mouse; details: 10 mg/kg, 3 weeks, sub-lethally irradiated mice
# Protocol: as §1
# [2] = tested on: K562 erythroleukemia cells transduced with shRPS19; assay: Autophagy induction (p62, LC3-I, LC3-II protein levels) in K562 cells transduced with shRPS19; assay type: cell-based, human
# Protocol: (FIG. 13A) Induction of autophagy by SMER28 (40 μM) monitored by protein levels of p62, LC3-I, and LC3-II after 24 hours. Cells were also treated with 5-FU (100 nM) to induce autophagy, or inhibitor of transcription actinomycin D (ActD; 100 nM). (FIG. 13B) Induction of autophagy by SMER28 (40 μM) monitored by protein levels of p62, LC3-I, and LC3-II after 24 hours treatment with or without lysosomal blockade with bafilomycin A (200 nM for 4 hours). Untreated samples are shown at higher exposure, to capture dynamic changes in the LC3-II levels. Rapamycin (200 nM) is a positive control. LC3-II levels relative to GAPDH are quantitated on the right. (FIG. 13C) Erythroid differentiation of CD34-5F cells transduced with shRNAs for luciferase (LUC) or ATG5±SMER28. Representative flow plots and quantitation showing the number of erythroid cells induced by SMER28 (10 μM) normalized to DMSO. 2 control luciferase shRNAs and 2 ATG5 shRNAs are included (knockdown efficiency in hematopoietic cells of 58% and 50%, respectively), each with 2 independent lines; p=0.005, 3 independent experiments. (FIG. 13D) Atg5 deficiency causes anemia in zebrafish. Wild-type zebrafish embryos were treated with 1.6 ng atg5 or missense morpholino, and hemoglobin staining was visualized with benzidine staining at 40 hpf with SMER28 (1 μM). Representative images (left), and quantitation (right) with embryos grouped by high, medium, and low levels of benzidine staining.
# SMER28 was identified as an mTOR-independent inducer of autophagy, by synergizing with rapamycin to promote clearance of protein aggregates in models of neurodegenerative disease (Sarkar et al., 2007; Tian et al., 2011). Autophagy is a pro-survival pathway induced by a variety of stresses, such as nutrient limitation or protein aggregation. Autophagy is required for clearance of mitochondria during terminal erythroid maturation (Mortensen and Simon, 2010), but has not been linked with earlier stages of erythropoiesis. To determine if SMER28 modulates autophagy in erythroid cells, we interrogated the levels of p62 and LC3 in K562 erythroleukemia cells transduced with shRPS19. SMER28 reduced p62 and increased the levels of […] LC3-II isoform associated with autophagosomes (FIG. 13A). […] To measure autophagic flux, we monitored LC3-II levels after blocking lysosomal fusion with bafilomycin A. SMER28 increased LC3-II levels following lysosomal blockade, similarly to the mTOR inhibitor rapamycin (FIG. 13B).
# Drug treatments. SMER28 was purchased from Tocris and diluted in 10 mM aliquots in DMSO. The final concentration for CD34-5F and CB CD34^+erythroid treatments was 0.2-10 μM as indicated in the text. The final concentration for K562 cell treatments was 20-40 μM. […]
# [3] = Dose escalation tolerability in mice; assay type: in vivo; details: dose escalation up to 20 mg/kg
# Source text: (§2) In following evaluation, the effects of administration of SMER28 to mice with irradiation-induced anemia, a model that enables dose-finding and initial testing of safety and bioactivity. […] To assess bioactivity, we measured the levels of autophagic marker LC3 in treated animals. […] (FIG. 10C). We tested the effect of this compound on human cells by treating NSG mice transplanted with human CD34-5F and CB cells. SMER28 increased the output of GlyA^+ RBCs from DBA CD34-5F cells (FIG. 10D).
# Drug treatments. SMER28 was purchased from Tocris and diluted in 10 mM aliquots in DMSO. The final concentration for CD34-5F and CB CD34^+erythroid treatments was 0.2-10 μM as indicated in the text. The final concentration for K562 cell treatments was 20-40 μM. Ferric citrate (1-50 μM) and deferoxamine (100-200 μM) (Sigma) were dissolved in PBS and added on days 0-4 of “expansion” culture, and washed off prior to erythroid stage I (days 4-9) differentiation. For in vivo experiments, SMER28 aliquots were diluted in vehicle solution: 30% PEG-400, 5% propylene glycol, and 0.5% Tween-80. Dosing for human xenograft experiments was 2 mg/kg; for mouse models 10-20 mg/kg. Dexamethasone was purchased as Dex-sodium phosphate (DexSP) water-soluble formulation (Santa Cruz), and diluted in PBS vehicle (1 mg/kg). […]
# LC3 = assay: Autophagic marker LC3 levels in liver of treated mice; assay type: in vivo, mouse
# Source text: FIGS. 11A-11C show effect of SMER28 on CD34+ progenitors. (FIG. 11A) Protein levels of LC3-I and LC3-II in control and SMER28 treated mice. GADPH is used as a loading control. […] (FIG. 11C) Atg5 morpholino treatment of rps29^+/− zebrafish.
# as §2
smiles,measurement,setting,value
"C=CCNc1ncnc2ccc(Br)cc12 [SMER28, 6-Bromo-N-2-propenyl-4-quinazolinam]",output of GlyA+ RBCs from DBA CD34-5F cells,DBA CD34-5F cells,increased
same,hematocrit vs vehicle,[1]; p=0.04,modestly elevated
same,peripheral blood RBC counts vs vehicle,[1]; p=0.07,modestly elevated
same,LC3-II levels following lysosomal blockade (autophagic flux),"[2]; SMER28 40 μM 24 hours, bafilomycin A 200 nM for 4 hours",increased
same,levels of LC3-II isoform associated with autophagosomes,"[2]; SMER28 40 μM, 24 hours",increased
same,p62 protein level,"[2]; SMER28 40 μM, 24 hours",reduced
same,tolerability / overt toxicity,[3],well tolerated
same,LC3-I and LC3-II levels in the liver,LC3,modestly increased
